Results: ChEMBL document CHEMBL4130363, “Synthesis and pharmacological evaluation of benzamide derivatives as potent and selective sigma-1 protein ligands” (Eur J Med Chem, 2017)

How the values were obtained:
[1] = target: T1, 5-hydroxytryptamine receptor 2C (Homo sapiens) (UniProt P28335); experiment: Agonist activity at recombinant human 5-HT2C at 10 uM by aequorin reporter based assay relative to agonist; format: functional
T1 sequence (whole entry): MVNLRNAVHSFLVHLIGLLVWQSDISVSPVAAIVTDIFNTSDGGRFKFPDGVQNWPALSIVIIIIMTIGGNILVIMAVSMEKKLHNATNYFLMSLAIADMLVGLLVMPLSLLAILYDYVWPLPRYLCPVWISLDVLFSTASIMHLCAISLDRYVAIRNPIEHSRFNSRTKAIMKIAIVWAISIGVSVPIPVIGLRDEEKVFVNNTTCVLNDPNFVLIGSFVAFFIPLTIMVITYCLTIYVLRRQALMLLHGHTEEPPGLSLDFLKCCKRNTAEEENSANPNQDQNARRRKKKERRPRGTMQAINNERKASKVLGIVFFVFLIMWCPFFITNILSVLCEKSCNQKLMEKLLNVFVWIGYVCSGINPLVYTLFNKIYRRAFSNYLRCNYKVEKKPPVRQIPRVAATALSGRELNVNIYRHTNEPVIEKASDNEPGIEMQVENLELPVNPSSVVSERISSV

[2] = target: Kappa-type opioid receptor (Homo sapiens) (UniProt P41145); experiment: Agonist activity at recombinant human kappa-type opioid receptor at 10 uM by GTPgamma[35S] binding-based assay relative to agonist; format: functional
[3] = target: T2, Cholecystokinin receptor type A (Homo sapiens) (UniProt P32238); experiment: Antagonist activity at recombinant human […] receptor assessed as inhibition of agonist induced effect at 10 uM by aequorin reporter based assay; format: functional
T2 sequence (whole entry): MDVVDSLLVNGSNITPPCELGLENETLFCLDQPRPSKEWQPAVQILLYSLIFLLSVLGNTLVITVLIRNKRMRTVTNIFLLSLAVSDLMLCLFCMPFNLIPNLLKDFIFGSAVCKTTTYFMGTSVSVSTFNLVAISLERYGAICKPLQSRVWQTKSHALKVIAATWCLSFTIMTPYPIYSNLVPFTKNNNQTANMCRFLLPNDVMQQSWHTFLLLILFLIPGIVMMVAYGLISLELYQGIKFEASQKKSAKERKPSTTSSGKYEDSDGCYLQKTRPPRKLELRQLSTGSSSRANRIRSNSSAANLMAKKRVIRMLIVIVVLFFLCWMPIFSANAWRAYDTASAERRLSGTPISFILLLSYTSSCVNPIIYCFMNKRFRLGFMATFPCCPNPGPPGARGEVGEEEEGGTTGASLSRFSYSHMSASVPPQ

[4] = target: T3, Alpha-2A adrenergic receptor (Homo sapiens) (UniProt P08913); experiment: Agonist activity at recombinant human alpha-2a adrenergic receptor at 10 uM by GTPgamma[35S] binding-based assay relative to agonist; format: functional
T3 sequence (whole entry): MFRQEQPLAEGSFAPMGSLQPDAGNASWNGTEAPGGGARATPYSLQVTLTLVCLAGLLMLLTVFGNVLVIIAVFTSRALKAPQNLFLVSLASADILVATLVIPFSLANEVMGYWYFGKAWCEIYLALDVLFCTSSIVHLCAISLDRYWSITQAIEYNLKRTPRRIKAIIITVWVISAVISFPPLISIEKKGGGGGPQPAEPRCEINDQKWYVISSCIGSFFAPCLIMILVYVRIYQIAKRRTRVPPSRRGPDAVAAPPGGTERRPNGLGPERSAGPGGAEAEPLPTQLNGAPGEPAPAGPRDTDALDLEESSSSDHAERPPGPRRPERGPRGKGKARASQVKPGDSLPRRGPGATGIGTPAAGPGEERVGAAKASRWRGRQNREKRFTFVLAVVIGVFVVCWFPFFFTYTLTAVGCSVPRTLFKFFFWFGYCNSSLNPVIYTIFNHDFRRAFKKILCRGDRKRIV

[5] = target: 5-hydroxytryptamine receptor 4 (Homo sapiens) (UniProt Q13639); experiment: Antagonist activity at recombinant human 5-HT4E assessed as inhibition of agonist-induced cAMP levels at 10 uM by HTRF assay; format: functional
[6] = target: Cannabinoid receptor 1 (Homo sapiens) (UniProt P21554); experiment: Agonist activity at recombinant human CB1 receptor […] at 10 uM by HTRF assay relative to agonist; format: functional
[7] = target: T4, 5-hydroxytryptamine receptor 1A (Homo sapiens) (UniProt P08908); experiment: Antagonist activity at recombinant human 5-HT1A assessed as inhibition of agonist-induced cAMP levels at 10 uM by HTRF assay; format: functional
T4 sequence (whole entry): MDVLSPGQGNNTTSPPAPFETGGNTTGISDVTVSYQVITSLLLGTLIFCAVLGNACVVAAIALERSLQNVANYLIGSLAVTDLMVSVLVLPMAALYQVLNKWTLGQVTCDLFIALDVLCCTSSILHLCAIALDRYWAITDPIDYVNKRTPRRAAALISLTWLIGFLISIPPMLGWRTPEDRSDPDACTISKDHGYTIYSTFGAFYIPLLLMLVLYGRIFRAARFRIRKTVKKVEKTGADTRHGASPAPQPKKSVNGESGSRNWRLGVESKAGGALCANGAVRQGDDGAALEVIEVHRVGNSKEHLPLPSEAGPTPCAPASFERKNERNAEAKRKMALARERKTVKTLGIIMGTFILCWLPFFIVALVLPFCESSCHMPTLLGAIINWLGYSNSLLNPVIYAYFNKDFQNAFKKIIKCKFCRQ

[8] = target: Adenosine receptor A2a (Homo sapiens) (UniProt P29274); experiment: Antagonist activity at recombinant human adenosine A2A receptor assessed as inhibition of agonist-induced cAMP induction at 10 uM by HTRF assay; format: functional
[9] = target: D(2) dopamine receptor (Homo sapiens) (UniProt P14416); experiment: Agonist activity at recombinant human dopamine D2L receptor at 10 uM by GTPgamma[35S] binding-based assay relative to agonist
[10] = target: T5, Muscarinic acetylcholine receptor M1 (Homo sapiens) (UniProt P11229); experiment: Agonist activity at recombinant human muscarinic M1 receptor at 10 uM by aequorin reporter based assay relative to agonist; format: functional
T5 sequence (whole entry): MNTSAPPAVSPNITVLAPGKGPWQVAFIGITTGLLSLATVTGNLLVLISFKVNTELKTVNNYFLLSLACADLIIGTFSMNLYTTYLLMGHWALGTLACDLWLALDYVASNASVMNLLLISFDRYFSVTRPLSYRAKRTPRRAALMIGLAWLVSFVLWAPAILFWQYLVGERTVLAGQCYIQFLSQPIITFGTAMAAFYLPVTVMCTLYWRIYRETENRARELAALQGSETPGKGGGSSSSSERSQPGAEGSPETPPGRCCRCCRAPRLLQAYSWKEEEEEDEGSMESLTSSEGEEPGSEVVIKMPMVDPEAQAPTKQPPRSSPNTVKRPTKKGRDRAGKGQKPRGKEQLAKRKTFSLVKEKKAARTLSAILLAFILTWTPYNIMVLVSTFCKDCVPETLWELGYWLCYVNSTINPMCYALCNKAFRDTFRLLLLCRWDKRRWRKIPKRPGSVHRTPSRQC

[11] = target: Histamine H2 receptor (Homo sapiens) (UniProt P25021); experiment: Agonist activity at recombinant human histamine H2 receptor assessed as induction of cAMP levels at 10 uM by HTRF assay relative to agonist; format: functional
Chain of Histamine H2 receptor (Homo sapiens) (P25021 whole entry): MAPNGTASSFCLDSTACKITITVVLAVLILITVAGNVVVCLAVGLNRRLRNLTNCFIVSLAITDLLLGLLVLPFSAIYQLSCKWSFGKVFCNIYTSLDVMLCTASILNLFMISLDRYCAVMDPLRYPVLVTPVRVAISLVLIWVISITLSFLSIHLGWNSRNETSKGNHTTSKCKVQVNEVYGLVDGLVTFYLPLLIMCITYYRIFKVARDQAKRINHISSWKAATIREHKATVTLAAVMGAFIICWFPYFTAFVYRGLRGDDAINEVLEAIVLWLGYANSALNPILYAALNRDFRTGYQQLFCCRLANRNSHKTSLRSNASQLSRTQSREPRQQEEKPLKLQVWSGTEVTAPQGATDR

Chain of Kappa-type opioid receptor (Homo sapiens) (P41145 whole entry): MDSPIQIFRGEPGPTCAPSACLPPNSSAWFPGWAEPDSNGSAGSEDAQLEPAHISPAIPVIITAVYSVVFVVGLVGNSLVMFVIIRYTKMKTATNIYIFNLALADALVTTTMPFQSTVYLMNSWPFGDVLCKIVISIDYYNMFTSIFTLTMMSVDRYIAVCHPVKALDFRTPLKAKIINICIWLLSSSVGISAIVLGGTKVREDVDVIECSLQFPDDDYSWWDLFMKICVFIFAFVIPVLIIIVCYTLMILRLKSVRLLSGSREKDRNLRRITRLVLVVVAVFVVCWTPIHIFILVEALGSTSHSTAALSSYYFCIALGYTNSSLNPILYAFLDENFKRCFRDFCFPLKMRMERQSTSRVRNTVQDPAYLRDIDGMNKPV
Chain of D(2) dopamine receptor (Homo sapiens) (P14416 whole entry): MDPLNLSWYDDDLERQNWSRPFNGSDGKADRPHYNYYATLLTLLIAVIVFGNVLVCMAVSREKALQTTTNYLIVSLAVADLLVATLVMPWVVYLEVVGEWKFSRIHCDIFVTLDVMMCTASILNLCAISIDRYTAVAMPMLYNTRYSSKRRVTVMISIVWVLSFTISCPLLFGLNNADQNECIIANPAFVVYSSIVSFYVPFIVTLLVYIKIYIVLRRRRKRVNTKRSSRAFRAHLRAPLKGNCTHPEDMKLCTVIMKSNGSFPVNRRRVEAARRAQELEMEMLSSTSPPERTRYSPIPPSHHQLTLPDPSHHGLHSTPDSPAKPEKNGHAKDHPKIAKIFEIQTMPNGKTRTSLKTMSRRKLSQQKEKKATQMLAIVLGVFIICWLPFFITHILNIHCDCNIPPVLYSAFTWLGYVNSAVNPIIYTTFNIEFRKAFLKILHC
Chain of Cannabinoid receptor 1 (Homo sapiens) (P21554 whole entry): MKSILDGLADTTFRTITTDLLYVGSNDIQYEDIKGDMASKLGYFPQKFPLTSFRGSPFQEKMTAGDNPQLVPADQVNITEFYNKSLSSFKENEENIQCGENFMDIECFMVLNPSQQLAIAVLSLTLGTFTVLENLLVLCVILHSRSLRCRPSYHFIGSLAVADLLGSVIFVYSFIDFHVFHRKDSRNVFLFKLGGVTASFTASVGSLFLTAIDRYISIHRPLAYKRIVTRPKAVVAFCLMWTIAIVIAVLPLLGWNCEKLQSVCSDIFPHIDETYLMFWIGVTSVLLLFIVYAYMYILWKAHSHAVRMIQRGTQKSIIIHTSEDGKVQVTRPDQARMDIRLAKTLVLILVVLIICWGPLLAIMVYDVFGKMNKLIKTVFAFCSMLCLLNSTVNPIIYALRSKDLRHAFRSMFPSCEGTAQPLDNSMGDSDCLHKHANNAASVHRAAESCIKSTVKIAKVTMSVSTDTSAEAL
Chain of Adenosine receptor A2a (Homo sapiens) (P29274 whole entry): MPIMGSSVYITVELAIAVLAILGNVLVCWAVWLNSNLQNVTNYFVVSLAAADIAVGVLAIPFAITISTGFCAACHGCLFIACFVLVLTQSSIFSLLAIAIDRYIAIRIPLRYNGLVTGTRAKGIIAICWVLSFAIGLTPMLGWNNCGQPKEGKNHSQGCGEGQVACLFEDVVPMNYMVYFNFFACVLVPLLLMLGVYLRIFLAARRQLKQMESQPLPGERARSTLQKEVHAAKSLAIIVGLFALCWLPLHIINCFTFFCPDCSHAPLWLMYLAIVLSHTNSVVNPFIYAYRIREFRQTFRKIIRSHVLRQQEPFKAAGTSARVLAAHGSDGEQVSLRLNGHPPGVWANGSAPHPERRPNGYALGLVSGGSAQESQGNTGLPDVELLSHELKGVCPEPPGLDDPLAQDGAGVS
Chain of 5-hydroxytryptamine receptor 4 (Homo sapiens) (Q13639 whole entry): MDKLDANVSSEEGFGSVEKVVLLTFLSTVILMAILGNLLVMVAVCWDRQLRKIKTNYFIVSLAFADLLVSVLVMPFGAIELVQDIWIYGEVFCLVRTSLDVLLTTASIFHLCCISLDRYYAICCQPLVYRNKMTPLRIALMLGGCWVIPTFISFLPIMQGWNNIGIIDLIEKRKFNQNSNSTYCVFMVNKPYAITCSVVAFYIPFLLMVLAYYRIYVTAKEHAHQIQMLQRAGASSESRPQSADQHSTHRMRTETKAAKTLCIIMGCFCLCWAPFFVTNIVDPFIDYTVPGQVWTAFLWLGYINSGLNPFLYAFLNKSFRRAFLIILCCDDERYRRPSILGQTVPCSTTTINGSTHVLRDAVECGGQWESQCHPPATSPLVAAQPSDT

| Compound | Activity [1] [%] | Activity [2] [%] | inhibition [3] [%] | Activity [4] [%] | inhibition [5] [%] | Activity [6] [%] | inhibition [7] [%] | inhibition [8] [%] | Activity [9] [%] | Activity [10] [%] | Activity [11] [%] |
| --- | --- | --- | --- | --- | --- | --- | --- | --- | --- | --- | --- |
| CN(CCCNC(=O)c1cccc(Br)c1)Cc1ccccc1 | -3 | 6 | 10 | -3 | -2 | -16 | 7 | -2 | -2 | 0 | -3 |
| CN(CCCNC(=O)c1ccc(Br)cc1)Cc1ccccc1 | 11 | 3 | -5 | 3 | -5 | -11 | -5 | -3 | -1 | 0 | -8 |
| COc1cccc(C(=O)NCCCN(C)Cc2ccccc2)c1 | 5 | 7 | 18 | 0 | 12 | 6 | 18 | -10 | 16 | 0 | 10 |
| CN(CCNC(=O)c1ccc(Cl)cc1)Cc1ccccc1 | 62 | 5 | 26 | -3 | -3 | -7 | 3 | -4 | -2 | 0 | -7 |
| CCCc1ccc(C(=O)NCCCN(C)Cc2ccccc2)cc1 | 63 | -2 | 17 | 1 | 0 | -16 | -6 | -3 | 4 | 0 | 1 |
| CN(CCCNC(=O)c1ccc(C(F)(F)F)cc1)Cc1ccccc1 | -7 | 1 | 22 | -2 | -9 | -12 | 1 | -1 | 25 | -1 | -7 |
| CN(CCCNC(=O)c1ccc([N+](=O)[O-])cc1)Cc1ccccc1 | 2 | 2 | 14 | -5 | -6 | 3 | -6 | -3 | 20 | 0 | -7 |
| CN(CCCNC(=O)c1ccc(Cl)cc1)CCc1ccccc1 | 75 | -1 | 29 | -3 | 4 | -3 | 17 | -5 | 25 | 0 | 15 |
| CN(CCNC(=O)c1ccc(C#N)cc1)Cc1ccccc1 | -1 | 5 | 21 | -1 | -2 | -1 | 16 | -7 | -23 | 0 | -3 |
| COc1ccc(C(=O)NCCCN(C)Cc2ccccc2)cc1 | 5 | 8 | 14 | -1 | 8 | 6 | 5 | -7 | -14 | 0 | 9 |
| CN(CCCNC(=O)c1ccc(Cl)cc1)Cc1ccccc1 | 12 | 2 | 12 | -2 | -4 | 3 | -1 | -4 | -3 | 0 | -10 |
| CN(CCNC(=O)c1ccc([N+](=O)[O-])cc1)Cc1ccccc1 | 13 | 8 | 18 | -1 | 2 | 8 | 20 | -5 | -15 | 0 | 9 |
